# Reference: DBAASP
# Legend:
# Test in all cases: ≥ marks a high value that may be exact or a test limit, other limits are often not marked, values filed in µg/mL are converted to µM
# [1] = system: Enterococcus faecalis ATCC 51299
# [2] = system: Enterococcus faecium ATCC 19434
# [3] = system: Escherichia coli ATCC 35218
# [4] = system: Klebsiella pneumoniae ATCC 49472
# [5] = system: Klebsiella pneumoniae ATCC BAA-2814
# [6] = system: Pseudomonas aeruginosa ATCC 27853
# [7] = system: Salmonella enterica subsp. enterica serovar Typhimurium ATCC 14028
# [8] = system: Staphylococcus aureus ATCC 12600
# [9] = system: Staphylococcus aureus ATCC BAA-2312
# [10] = system: Candida albicans ATCC 90029
# Candida albicans CA1 = system: Candida albicans CA1
# [11] = system: Candida krusei ATCC 40147
# [12] = system: Candida parapsilosis ATCC 90018
# [13] = system: Candida tropicalis ATCC 750
# Escherichia coli 078 = system: Escherichia coli 078
# Escherichia coli 987P = system: Escherichia coli 987P
# [14] = system: Escherichia coli ATCC 25922
# Escherichia coli K88 = system: Escherichia coli K88
# Escherichia coli K99 = system: Escherichia coli K99
# Escherichia coli UB1005 = system: Escherichia coli UB1005
# [15] = system: Lacticaseibacillus rhamnosus 1.0385
# [16] = system: Lacticaseibacillus rhamnosus 1.0386
# [17] = system: Lacticaseibacillus rhamnosus 1.0911
# [18] = system: Lacticaseibacillus rhamnosus 1.9205
# [19] = system: Lacticaseibacillus rhamnosus 7469
# [20] = system: Lactiplantibacillus plantarum 8014
# [21] = system: Salmonella enterica subsp. enterica serovar Typhimurium C77-31
# [22] = system: Staphylococcus aureus ATCC 25923
# [23] = system: Staphylococcus aureus ATCC 29213
# [24] = system: Staphylococcus epidermidis ATCC 12228
# [25] = system: Streptococcus agalactiae ATCC 13813
structure (smiles),measurement,setting,value
CC[C@H](C)[C@H](NC(=O)[C@H](CC(=O)O)NC(=O)[C@@H](NC(=O)[C@@H](NC(=O)[C@H](C)NC(=O)CN)C(C)C)C(C)C)C(=O)N[C@@H](CC(C)C)C(=O)N[C@@H](CCCCN)C(=O)NCC(=O)N[C@@H](C)C(=O)NCC(=O)N[C@@H](CCCCN)C(=O)N[C@@H](CC(N)=O)C(=O)N[C@@H](CC(C)C)C(=O)N[C@@H](CC(C)C)C(=O)N[C@@H](CO)C(=O)N[C@@H](CC(C)C)C(=O)N[C@@H](C)C(=O)N[C@@H](CC(C)C)C(=O)N[C@@H](CC(N)=O)C(=O)N[C@@H](CCCCN)C(=O)N[C@@H](CC(C)C)C(=O)N[C@@H](CO)C(=O)N[C@@H](CCC(=O)O)C(=O)N[C@@H](CCCCN)C(=O)N[C@H](C(N)=O)C(C)C [GAVVDILKGAGKNLLSLALNKLSEKV],MIC,[1],≥ 250 µM
same,MIC,[2],≥ 250 µM
same,MIC,[3],≥ 62.5 µM
same,MIC,[4],≥ 125 µM
same,MIC,[5],≥ 125 µM
same,MIC,[6],> 125 µM
same,MIC,[7],250 µM
same,MIC,[8],≥ 250 µM
same,MIC,[9],≥ 250 µM
CC[C@H](C)[C@H](NC(=O)[C@H](C)NC(=O)[C@H](CCCCN)NC(=O)[C@H](CC(C)C)NC(=O)[C@H](C)NC(=O)[C@H](Cc1c[nH]c2ccccc12)NC(=O)[C@H](CCCCN)NC(=O)[C@H](C)NC(=O)[C@H](CC(C)C)NC(=O)[C@@H](NC(=O)CNC(=O)[C@H](Cc1c[nH]c2ccccc12)NC(=O)[C@@H](N)Cc1ccccc1)[C@@H](C)O)C(=O)N1CCC[C@H]1C(=O)N[C@@H](C)C(=O)N[C@@H](C)C(=O)N[C@@H](CCSC)C(=O)NCC(=O)N[C@@H](CCSC)C(=O)N[C@@H](CCCCN)C(=O)N[C@@H](CCC(N)=O)C(=O)N[C@@H](CC(N)=O)C(=O)N[C@@H](CCCCN)C(=O)O [FWGTLAKWALKAIPAAMGMKQNK],MIC,[10],10 µM
same,MIC,Candida albicans CA1,10 µM
same,MIC,[11],5 µM
same,MIC,[12],10 µM
same,MIC,[13],10 µM
CC(C)C[C@H](NC(=O)[C@H](CCCN=C(N)N)NC(=O)[C@@H](NC(=O)[C@H](CCCN=C(N)N)NC(=O)[C@@H]1CCCN1C(=O)[C@H](CCCN=C(N)N)NC(=O)[C@H](CCCCN)NC(=O)[C@@H](N)CCC(N)=O)C(C)C)C(=O)N[C@@H](CO)C(=O)N[C@@H](C)C(=O)O [QKRPRVRLSA],MIC,Escherichia coli 078,≥ 128 µM
same,MIC,Escherichia coli 987P,≥ 128 µM
same,MIC,[14],64 µM
same,MIC,Escherichia coli K88,≥ 64 µM
same,MIC,Escherichia coli K99,≥ 64 µM
same,MIC,Escherichia coli UB1005,≥ 128 µM
same,MIC,[15],≥ 128 µM
same,MIC,[16],≥ 128 µM
same,MIC,[17],≥ 128 µM
same,MIC,[18],≥ 128 µM
same,MIC,[19],≥ 128 µM
same,MIC,[20],≥ 128 µM
same,MIC,[6],> 128 µM
same,MIC,[21],≥ 128 µM
same,MIC,[22],> 128 µM
same,MIC,[23],> 128 µM
same,MIC,[24],> 128 µM
same,MIC,[25],≥ 128 µM
